These results are taken from patent US9266911B2, “Camptothecin derivative, and preparation method thereof, and pharmaceutical composition and application” (priority 2011, dated 2016).

In brackets after ≈: the same amount, converted by molar mass. Several values for one entry are separate records, joined by “and”; a condition that tells them apart may be missing. Equal values may be shown once. Read-outs that look alike come from different tables or passages of the source.

In data set [1] the test system is H446 (small cell lung cancer) cells. Briefly: CellTiter-Glo cell viability assay, H446 cells. The format is cell-based, human. The settings on record: for viability at 0.1 µM / viability at 1 µM / viability at 10 µM: Homo sapiens, NCI-H446. The method, then:
(§1) Using the CellTiter-Glo kit provided by Promega Corporation, cell viability assay was performed on cancer cell lines to evaluate the ability of a compound to kill cancer cells in the in-vitro experiments. The kit measures the ATP levels by an enzymatic Luciferase assay. Normal viable cells will produce a certain level of ATP in metabolism. The enzymic reaction between the ATP product and the luciferase will emit a certain level of luminescent signal, which is captured by a luminometer and recorded as a certain luminescent read. […] When using this method to evaluate the anti-cancer activity of a compound, a certain concentration of an anti-cancer drug is added to the same amount of viable cancer cells, and the luminescent signal reading is acquired at a certain time point via CellTiter-Glo kits. […] Detailed procedure is as follows: a certain amount of small cell lung cancer cells (ATCC catalog No. H446), breast cancer cells (ATCC catalog No. MDAMB231) or colon cancer cells (ATCC catalog No. HCT116) are seeded in 96 wells with the same cell-culture medium, then respectively treated with WQ1001 and other anti-cancer drugs for a time course of 24, 48, and 72 hours. At the respective time points, the cancer cells are mixed with CellTiter-Glo reagents for 1 hour and the corresponding luminescent signals are recorded. Since the luminescent signal reading is proportional to the amount of viable cancer cells, the luminescent signal reading can be translated into the amount of viable cancer cells correspondingly. The cell livability rate is obtained by dividing the amount of viable cancer cells after treated with a certain concentration of anti-cancer drug by the amount of viable cancer cells of the Control Group which are not treated with the drug.

Data set [2] concerns MDAMB231 (breast cancer) cells. Briefly: CellTiter-Glo cell viability assay, MDAMB231 cells. The settings on record: 48 hours; for viability at 0.1 µM / viability at 1 µM / viability at 10 µM: Homo sapiens, read-out: MDAMB231 cell viability after drug treatment; for viability at 0.1 µM: MDA-MB-231, 0.1 μM; for viability at 1 µM: MDA-MB-231, 1.0 μM; for viability at 10 µM: MDA-MB-231, 10 μM. In kind it is cell-based. The method, then:
as §1
In general terms: Cellular ATP, detected with luciferase, serves as a proxy for viable cell number.

The subject of data set [3] is HCT116 (colon cancer) cells. Briefly: CellTiter-Glo cell viability assay, HCT116 cells. In kind it is cell-based. The conditions noted are these: for viability at 0.1 µM / viability at 1 µM / viability at 10 µM: Homo sapiens, read-out: HCT116 cell viability after drug treatment for 48 hours. The method, then: as §1
Another data set is described as follows: Water-solubility. In kind it is physicochemical. The settings on record: for solubility: water. The method, then: (§2) Table 15 lists comparison of properties between the representative compounds of the present invention and several existing CPT derivatives. In the test, the lactone ring stability was characterized by lactone ring conservation rate measured by HPLC (liquid chromatogram) after placing the test compounds in buffer solution of pH 7.4. The anticancer activity was characterized by viability of H446 cancer cells at 10 μM drug concentration. From the Table, one can learn the differences in water-solubility, lactone ring stability and toxicology of the compounds of the present invention.

Data set [4] is described as follows: Lactone ring stability (lactone ring conservation rate by HPLC in pH 7.4 buffer). In kind it is physicochemical. The conditions noted are these: lactone ring conservation rate by HPLC after placing in buffer solution of pH 7.4. The method, then:
as §2

Data set [5] concerns human colon cancer HT-29 nude mouse xenograft. Briefly: In vivo antitumor efficacy, HT-29 nude mouse xenograft model. The conditions noted are these: 35 mg/kg.
The test system of data set [6] is human breast cancer MCF-7 nude mouse xenograft. Briefly: In vivo antitumor efficacy, MCF-7 nude mouse xenograft model. The settings on record: 35 mg/kg.
Data set [7] relates to human small cell lung cancer NCI-H446 nude mouse xenograft. Briefly: In vivo antitumor efficacy, NCI-H446 nude mouse xenograft model. The method, then: The drugs were administered by intravenous injection.
WQ1001 was administered by I.V. injection once every other day for 3 consecutive times, followed by 7 days' rest without drug administration, then one more circle was performed, for a total of 6 times of administration.

In data set [8] the test system is human multiple myeloma NCI-H929 nude mouse xenograft. Briefly: In vivo antitumor efficacy, NCI-H929 nude mouse xenograft model. The conditions noted are these: 10 mg/kg (Table 23), intraperitoneal. The method, then:
The human multiple myeloma NCI-H929 cells were grafted to nude mice. […] Two days after tumor cell implantation, the drugs were administered by intraperitoneal injection once every 4 days for a total of 3 injections (on Day 2, 6, 10 after cancer cell implantation). The body weight was measured every 2 days.

The target in the next data set is human serum album (Homo sapiens, UniProt P02768). The settings on record: physiological condition; cited from earlier work.
human serum album, sequence (P02768 25-609): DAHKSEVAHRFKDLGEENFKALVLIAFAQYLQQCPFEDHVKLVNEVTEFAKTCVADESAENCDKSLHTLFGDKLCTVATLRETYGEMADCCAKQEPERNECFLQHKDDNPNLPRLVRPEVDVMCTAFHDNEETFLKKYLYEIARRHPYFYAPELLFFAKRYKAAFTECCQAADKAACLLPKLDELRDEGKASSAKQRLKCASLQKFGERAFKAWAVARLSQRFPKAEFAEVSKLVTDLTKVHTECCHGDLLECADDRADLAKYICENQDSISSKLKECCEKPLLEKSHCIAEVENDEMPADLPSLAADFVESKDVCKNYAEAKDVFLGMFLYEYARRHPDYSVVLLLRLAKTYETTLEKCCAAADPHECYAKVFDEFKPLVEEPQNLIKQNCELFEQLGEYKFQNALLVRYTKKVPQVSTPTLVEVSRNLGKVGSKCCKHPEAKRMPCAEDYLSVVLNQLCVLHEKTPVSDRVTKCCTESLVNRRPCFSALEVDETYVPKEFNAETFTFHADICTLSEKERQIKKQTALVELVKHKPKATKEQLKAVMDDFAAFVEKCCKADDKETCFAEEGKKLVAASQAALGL
Setting [9] is: H446 cells, 0.1 μM, 48 hours, read-out: H446 cell viability after drug treatment for 48 hours.
The mark [10] stands for this setting: H446 cells, 1.0 μM, 48 hours, read-out: H446 cell viability after drug treatment for 48 hours.
The mark [11] stands for this setting: H446 cells, 10 μM, 48 hours, read-out: H446 cell viability after drug treatment for 48 hours.
Setting [12] is: viability of H446 cancer cells at 10 μM drug concentration (Table 15).
[13] abbreviates: viability of H446 cancer cells at 10 μM drug concentration (Table 15), read-out: Cancer cell viability.
The mark [14] stands for this setting: topotecan 10 mg/kg i.v., D0, 4, 7, 11, 14, 17, D22.

The viability is a read-out of living cells in per cent, often relative to untreated cells. Consider `CC[C@@]1(O)C(=O)OCc2c1cc1n(c2=O)Cc2cc3cc(O)ccc3nc2-1` [10-hydroxyl CPT, 10-Hydroxy-CPT (SN22)], for which the viability at 0.1 µM in [1] (setting [9]) came to 72%; in data set [2], 53%; in data set [3] (HCT-116, 0.1 μM, 48 hours), 15%. The viability at 1 µM was 30% in [1] (setting [10]); 40% in data set [2]; 1% in data set [3] (HCT-116, 1.0 μM, 48 hours). Further, the viability at 10 µM in [1] (setting [11]) worked out at 24%; in data set [2] it was 18%; in data set [3] (HCT-116, 10 μM, 48 hours) it was 9%.
As for `CC[C@@]1(OP(=O)(O)O)C(=O)OCc2c1cc1n(c2=O)Cc2cc3ccccc3nc2-1` [CPT-20(S)-phosphate], the Cancer cell viability in data set [1] (setting [12]) is above 85%. In the data set “Water-solubility”, this compound had a Water-solubility above 10000 µg/mL. Moreover, the Lactone ring stability in data set [4] is on record as above 90%.
Take `CCc1c2c(nc3ccc(O)cc13)-c1cc3c(c(=O)n1C2)COC(=O)[C@]3(O)CC` [SN38]: the viability at 0.1 µM in data set [1] (setting [9]) is 79%; in [2] it was 48%; in data set [3] (HCT-116, 48 h, 0.1 μM), 5%. Further, the viability at 1 µM turned out to be 60% in data set [1] (setting [10]); 33% in data set [2]; 2% in data set [3] (HCT-116, 48 h, 1.0 μM). The viability at 10 µM in data set [1] (setting [11]) stood at 28%; in data set [2] it was 20%; in [3] (HCT-116, 48 h, 10 μM), 6%.
As a reminder, the solubility is the dissolved amount per volume that the medium holds. Lower therefore signals little dissolved substance. Turning to `CCc1c2c(nc3ccc(OC(=O)N4CCC(N5CCCCC5)CC4)cc13)-c1cc3c(c(=O)n1C2)COC(=O)[C@]3(O)CC` [irinotecan, Irinotecan], the viability at 10 µM in data set [1] (setting [13]) is above 30%. Moreover, the solubility in “Water-solubility” stood at 1000 µg/mL (≈ 1700 µM). The compound also came in with a Lactone ring stability in data set [4] below 50%. In addition, the RTV22 stood at 4.9 ± 1.3 in data set [5] (D0, 3, 7, 10, 14, 17) and 1.9 ± 0.4 in data set [6] (D0, 3, 7, 10, 14, 17). Also, the “Animal body-weight (g_) End” value in [5] (D0, 3, 7, 10, 14, 17, end) is 18.7 ± 1.7 g; in data set [6] (D0, 3, 7, 10, 14, 17, end), 20.6 ± 1.4 g. Moreover, the “Animal body-weight (g_) Start” value in data set [6] (D0, 3, 7, 10, 14, 17, start) was determined as 19.0 ± 0.8 g.
For the compound `CC[C@@]1(O)C(=O)OCc2c1cc1n(c2=O)Cc2cc3ccccc3nc2-1` [CPT, Camptothecin], the viability at 0.1 µM worked out at 65% in [1] (setting [9]); 13% in data set [2]; 107% in data set [3] (HCT-116, 48 h, 0.1 μM). The viability at 1 µM stood at 51% in data set [1] (setting [10]); 5% in data set [2]; 76% in data set [3] (HCT-116, 48 h, 1.0 μM). The viability at 10 µM in data set [1] (setting [11]) was 24%; in [1] (setting [13]) it was below 30%; in data set [2], 3%. Further, the “HCT116 cell viability after drug treatment for 48 hours” value in data set [3] (1.0 μM) is 82%. This compound also came in with a solubility in “Water-solubility” below 100 µg/mL. The Lactone ring stability in data set [4] is below 50%.
Take Topotecan: the “H446 cell viability after drug treatment for 48 hours” value is 73% in [1] (H446 cells, 0.1 μM, 48 hours); 50% in [1] (H446 cells, 1.0 μM, 48 hours); 25% and 23% in data set [1] (H446 cells, 10 μM, 48 hours). The Cancer cell viability in [1] (setting [12]) was above 30%. In addition, the “MDAMB231 cell viability after drug treatment” value in data set [2] (0.1 μM) is on record as 68%; in data set [2] (1.0 μM), 50%; in data set [2] (10 μM), 23%. The “HCT116 cell viability after drug treatment for 48 hours” value worked out at 26% in [3] (0.1 μM), 2% in [3] (1.0 μM) and 6% in data set [3] (10 μM). Besides, in the data set “Water-solubility”, the Water-solubility is 1000 µg/mL. The same compound registered a Lactone ring stability in data set [4] below 50%. Also, in data set [7] (NCI-H446 nude mice, i.v., 6 administrations), the “MTD (Maximum Toxicity Dosage)” value turned out to be 10 mg/kg. Besides, the animal death result in data set [7] (WQ1001 40 mg/kg Group, topotecan 10 mg/kg Group, to D22) is listed as “no animal death appeared”. Also, the “tumor growth” value in data set [7] (WQ1001 10, 20 and 40 mg/kg, topotecan 10 mg/kg, 6 administrations i.v.) is given as “significantly inhibited tumor growth”. In data set [7] (end of test (D22), WQ1001 40 mg/kg Group, topotecan 10 mg/kg Group), the “body weight change at the end of test” value is “decreased significantly”. Moreover, the RTV22 in [7] (setting [14]) came to 10.7 ± 4.8. Moreover, in data set [7] (setting [14]), the “T22/C22 (%)” value was found to be 49.3%. The “Animal body-weight (g_) End” value stood at 16.4 ± 1.5 g in [7] (topotecan 10 mg/kg i.v., D0, 4, 7, 11, 14, 17, end (D22)) and 19.2 ± 0.9 g in data set [8] (D2, 6, 10, end (Day 11)). The “Animal body-weight (g_) Start” value was 17.6 ± 1.2 g in data set [7] (topotecan 10 mg/kg i.v., D0, 4, 7, 11, 14, 17, start) and 21.0 ± 1.6 g in data set [8] (D2, 6, 10, start). Also, the RTV11 in data set [8] (D2, 6, 10) amounted to 25.3 ± 14.8. Further, in data set [8] (D2, 6, 10), the “T11/C11 (%)” value is 62.7%.
Take `COc1cc([C@@H]2c3cc4c(cc3[C@@H](O[C@@H]3O[C@@H]5CO[C@@H](C)O[C@H]5[C@H](O)[C@H]3O)[C@H]3COC(=O)[C@H]23)OCO4)cc(OC)c1O` [etoposide]: the viability at 0.1 µM in data set [1] (setting [9]) worked out at 95%; in [3] (HCT-116, 48 h, 0.1 μM), 102%. Moreover, the viability at 1 µM in data set [1] (setting [10]) turned out to be 73%; in data set [3] (HCT-116, 48 h, 1.0 μM), 89%. Also, the viability at 10 µM is 47% in data set [1] (setting [11]) and 29% in [3] (HCT-116, 48 h, 10 μM).
`CCC(O)(C(=O)O)c1cc2n(c(=O)c1CO)Cc1cc3ccccc3nc1-2` (stereo not drawn) [carboxylate derivative]: at human serum album, the “preferential binding to human serum album, relative to CPT” value was 150 fold.
